# Measurements from patent US8815902B2, “Tetrahydroquinoline amide M1 receptor positive allosteric modulators” (Merck Sharp & Dohme Corp., priority 2010, dated 2014).
# Where two headings read alike, the source gives them in different places.
# Biological target: T1, acetylcholine muscarinic M1 receptor (hM1) (Homo sapiens, UniProt P11229)
# T1 construct: expressed in transfected cells; host or cells: CHOnfat cells (CHO, NFAT reporter background), Geneticin-selected; b186 also calls them CHOK1/hM1
# T1 sequence (P11229 1-460): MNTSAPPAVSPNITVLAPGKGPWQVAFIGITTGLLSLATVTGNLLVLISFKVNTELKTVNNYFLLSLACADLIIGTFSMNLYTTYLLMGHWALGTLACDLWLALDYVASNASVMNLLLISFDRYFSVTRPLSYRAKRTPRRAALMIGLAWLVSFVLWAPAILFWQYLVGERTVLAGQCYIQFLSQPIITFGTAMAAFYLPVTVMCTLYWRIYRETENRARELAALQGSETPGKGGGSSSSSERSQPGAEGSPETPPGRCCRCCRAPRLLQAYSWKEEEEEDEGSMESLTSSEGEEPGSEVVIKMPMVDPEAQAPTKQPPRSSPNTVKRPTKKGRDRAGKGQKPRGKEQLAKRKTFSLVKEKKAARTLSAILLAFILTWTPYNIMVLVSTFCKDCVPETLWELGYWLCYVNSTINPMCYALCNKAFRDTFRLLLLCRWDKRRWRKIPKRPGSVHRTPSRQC
# Assay: muscarinic FLIPR assay: intracellular calcium in CHOnfat/hM1 cells, potentiation of EC20 acetylcholine
# Format: cell-based
# Protocol: The assay studies the effect of one or several concentrations of test compounds on basal or acetylcholine-stimulated Ca^2+ levels using FLIPR.
# Compounds are prepared and subjected to a preincubation period of 4 min. Thereafter, a single EC20 concentration of acetylcholine is added to each well (3 nM final). The intracellular Ca^2+ level of each sample is measured and compared to an acetylcholine control to determine any modulatory activity.
# Cells: CHOnfat/hM1, hM2, hM3 or hM4 cells are plated 24 hr before the assay at a density of 18,000 cells/well (100 μL) in a 384 well plate. CHOnfat/hM1 and CHOnfat/hM3 Growth Medium: 90% DMEM (Hi Glucose); 10% HI FBS; 2 mM L-glutamine; 0.1 mM NEAA; Pen-Strep; and 1 mg/ml Geneticin, are added. For M2Gqi5CHOnfat and M4Gqi5CHOnfat cells, an additional 600 ug/ml hygromycin is added.
# Equipment: 384 well plate, 120 μL addition plate; 96-well Whatman 2 ml Uniplate Incubator, 37° C., 5% CO2; Skatron EMBLA-384 Plate Washer; Multimek Pipetting System; Genesis Freedom 200 System; Mosquito System; Temo Nanolitre Pipetting System; and FLIPR^384 Fluorometric Imaging Plate Reader System are used.
# Buffers. Assay Buffer: Hanks Balanced Salt Solution, with 20 mM Hepes, 2.5 mM Probenecid (Sigma P-8761) first dissolved in 1 N NaOH, 1% Bovine Serum Albumin (Sigma A-9647). Dye Loading Buffer: Assay Buffer plus 1% Fetal Bovine Serum and Fluo-4AM/Pluronic Acid Mixture. 2 mM Fluo-4AM ester stock in DMSO (Molecular Probes F-14202) Concentration of 2 μM in buffer for a final concentration of 1 μM in Assay. 20% Pluronic Acid Solution stock, with concentration of 0.04% in Buffer, 0.02% in Assay.
# 65 μL of 2 mM Fluo-4AM are mixed with 130 μL of 20% Pluronic Acid. The resulting solution and 650 μL FBS is added to the assay buffer for a total volume of 65 mL. Positive Controls: 4-Br-A23187: 10 mM in DMSO; final concentration 10 μM. Acetylcholine: 10 mM in water, working stock at both 20 μM and 30 μM in assay buffer, final concentration of 10 μM. This is used to check the maximum stimulation of the CHOK1/hM1 cells. 20 μM (2×) acetylcholine is added in the preincubation part of the assay, and the 30 μM (3×) stock is added in the second part. (EC20) Acetylcholine: 10 mM in water, working stock of 9 nM (3×), and final concentration in assay is 3 nM. This is used after the preincubation with test compounds. Addition of the EC20 Acetylcholine to each well with a test compound will ascertain any modulator activity. 24 wells contain 3 nM Acetylcholine alone as a control.
# Screening Plate Compounds are titrated in 96-well plates (columns 2-11), 100% DMSO, started at a concentration of 15 mM (150× stock concentration), and 3-fold serial dilutions using Genesis Freedom200 System. Four 96-well plates are combined into a 384-well plate using Mosquito Nanolitre Pipetting System by transferring 1 μl of serial diluted compounds to each well, and 1 mM acetylcholine (100× stock concentration) were added as a control. Using Temo, 49 μl assay buffer is added to each well of the 384-well plate right before assay.
# In a 96-well Whatman 2 ml Uniplate, 9 nM Acetylcholine (3×) is pipetted into wells corresponding to the screening compounds, and into control wells. The 30 μM acetylcholine control (3×) is added into control wells, and the 3× agonist plate is transferred into a 384 well plate.
# Cells are washed three times with 100 μL of buffer, leaving 30 μL of buffer in each well. Using Multimek, 30 μL of Dye Loading Buffer is added into each well and incubated at 37° C., 5% CO2 for up to one hr.
# After 60 min, the cells are washed three times with 100 μL of buffer, leaving 30 μL of buffer in each well. The cell plate, screening plate, and agonist addition plates are placed on the platform in the FLIPR and the door closed. A signal test to check background fluorescence and basal fluorescence signal is performed. Laser intensity is adjusted if necessary. […]
# [1] = Table 1, EC20 acetylcholine (3 nM final), read-out: H Pot.
# [2] = Table 2, EC20 acetylcholine (3 nM final), read-out: M1 IP (inflection point)
EC50 [1],EC50 [2],SMILES
129 nM,–,O=C(N[C@H]1CCCC[C@@H]1O)c1cc(Cc2ccc(Cl)nc2)c2c(n1)CCCC2 [Compound 7]
18 nM,–,COc1ccc(-c2ccc(Cc3cc(C(=O)N[C@H]4CCCC[C@@H]4O)nc4c3CCCC4)cn2)cn1 [Compound 8]
15 nM,–,O=C(N[C@H]1CCCC[C@@H]1O)c1cc(Cc2ccc(-c3cccnc3)nc2)c2c(n1)CCCC2 [Compound 9]
36 nM,–,O=C(N[C@H]1CCCC[C@@H]1O)c1cc(Cc2ccc(-c3ccc(F)nc3)nc2)c2c(n1)CCCC2 [Compound 10]
26 nM,–,O=C(N[C@H]1CCCC[C@@H]1O)c1cc(Cc2ccc(-c3ccccc3)nc2)c2c(n1)CCCC2 [Compound 11]
120 nM,–,COc1cc(Cc2cc(C(=O)N[C@H]3CCOC[C@@H]3O)nc3c2CCCC3)ccn1 [Compound 12]
80 nM,–,O=C(NC1CCOCC1O)c1cc(Cc2ccn3ccnc3c2)c2c(n1)CCCC2 (stereo not drawn) [Compound 13]
33 nM,–,O=C(N[C@H]1CCOC[C@@H]1O)c1cc(Cc2ccnc3ccccc23)c2c(n1)CCCC2 [Compound 14]
11 nM,–,O=C(N[C@H]1CCOC[C@@H]1O)c1cc(Cc2cnc3ccccc3c2)c2c(n1)CCCC2 [Compound 15]
11 nM,–,O=C(N[C@H]1CCOC[C@@H]1O)c1cc(Cc2ccc(-c3cccnc3)nc2)c2c(n1)CCCC2 [Compound 16]
15 nM,–,O=C(N[C@H]1CCOC[C@@H]1O)c1cc(Cc2ccc(-c3ccc(F)nc3)nc2)c2c(n1)CCCC2 [Compound 17]
7 nM,–,COc1cncc(-c2ccc(Cc3cc(C(=O)N[C@H]4CCOC[C@@H]4O)nc4c3CCCC4)cn2)c1 [Compound 18]
23 nM,–,O=C(N[C@H]1CCOC[C@@H]1O)c1cc(Cc2ccc(-c3cncc(F)c3)nc2)c2c(n1)CCCC2 [Compound 19]
7 nM,–,Cc1ccc(-c2ccc(Cc3cc(C(=O)N[C@H]4CCOC[C@@H]4O)nc4c3CCCC4)cn2)cn1 [Compound 20]
6 nM,–,Cc1cncc(-c2ccc(Cc3cc(C(=O)N[C@H]4CCOC[C@@H]4O)nc4c3CCCC4)cn2)c1 [Compound 21]
17 nM,–,COc1ccc(-c2ccc(Cc3cc(C(=O)N[C@H]4CCOC[C@@H]4O)nc4c3CCCC4)cn2)cn1 [Compound 22]
620 nM,–,CC(C)(C)OC(=O)N1CC=C(Cc2cc(C(=O)N[C@H]3CCOC[C@@H]3O)nc3c2CCCC3)CC1 [Compound 23]
2240 nM,–,CC(=O)N1CCC(Cc2cc(C(=O)N[C@H]3CCOC[C@@H]3O)nc3c2CCCC3)CC1 [Compound 24]
–,102 nM,"O=C(N[C@H]1CCOC[C@@H]1O)c1cc(Cc2ccc(Cl)nc2)c2c(n1)CCCC2 [Example 1, 1,5-Anhydro-3[({4-[(6-chloropyridin-3-yl)methyl]-5,6,7,8-tetrahydroquinolin-2-yl}carbonyl)amino]-2,3-dideoxy-L-threo-pentitol]"
–,88 nM,"CSc1ccc(Cc2cc(C(=O)N[C@H]3CCCC[C@@H]3O)nc3c2CCCC3)cn1 [Example 2, N-[(1S,2S)-2-Hydroxycyclohexyl]-4-{[6-(methylsulfanyl)pyridin-3-yl]methyl}-5,6,7,8-tetrahydroquinoline-2-carboxamide]"
–,98 nM,"COc1ccc(Cc2cc(C(=O)N[C@H]3CCOC[C@@H]3O)nc3c2CCCC3)cn1 [Example 3, 1,5-Anhydro-2,3-dideoxy-3-[({4-[(6-methoxypyridin-3-yl)methyl]-5,6,7,8-tetrahydroquinolin-2-yl}carbonyl)amino]-L-threo-pentitol]"
–,654 nM,"CC(=O)N1CC=C(Cc2cc(C(=O)N[C@H]3CCOC[C@@H]3O)nc3c2CCCC3)CC1 [Example 4, 3-[{(4-[(1-Acetyl-1,2,3,6-tetrahydropyridin-4-yl)methyl]-5,6,7,8-tetrahydroquinolin-2-yl}carbonyl)amino]-1,5-anhydro-2,3-dideoxy-L-threo-pentitol]"
–,4 nM,"Cn1cc(-c2ccc(Cc3cc(C(=O)N[C@H]4CCOC[C@@H]4O)nc4c3CCCC4)cn2)cn1 [Example 5, 1,5-Anhydro-2,3-dideoxy-3-{[(4-{[6-(1-methyl-1H-pyrazol-4-yl)pyridine-3-yl]methyl}-5,6,7,8-tetrahydroquinolin-2-yl)carbonyl}amino]-L-threo-pentitol]"
–,115 nM,"O=C(N[C@H]1CCOC[C@@H]1O)c1cc(Cc2ccc(-c3cnccn3)nc2)c2c(n1)CCCC2 [Example 6, 1,5-Anhydro-2,3-dideoxy-3-{[(4-{[6-(pyrazin-2-yl)pyridine-3-yl]methyl}-5,6,7,8-tetrahydroquinolin-2-yl)carbonyl]amino}-L-threo-pentitol]"
